Measurements: patent US10526327B2, “Histone demethylase inhibitors” (CELGENE QUANTICEL RESEARCH, INC., priority 2013, dated 2020)
pIC50: −log10 of the molar value.

Legend:
KDM5A/B = assay: In vitro cell-based assay: immuno-blot quantification of tri-methyl H3K4 in ZR-75-1 breast cancer cells; settings: 72 hours, tri-methyl H3K4 level relative to GAPDH, percent of DMSO, read-out: Cellular IC50
From the text: An assay to measure the degree of cellular inhibition of KDM5A and 5B was developed. This quantitative immuno-blotting assay measures the amount tri-methylated histone H3 at amino acid Lysine number 4, a specific substrate […] of the direct enzymatic activity of the histone demethylases KDM5A and KDM5B from extracts of the ZR-75-1 breast cancer cell line.
This assay is a fluorometric immunoassay for the quantification of tri-methyl H3K4 extracted from cells treated with test compound and is used as a measure of the cellular inhibition of KDM5A/B.
ZR-75-1 (PTEN null, ER+) breast cancer cells numbering 50,000 (ATCC) were seeded into each well of a 96-well tissue culture treated plate and then exposed to an 11 point dilution of test compound with final concentration ranges of test compound ranging from 1250 μM to 10 nM. Cells were left in the presence of test compound for 72 hours. Extracts were prepared containing all of the cellular histone material using detergent based lysis and sonication methods. These lysates were subsequently normalized for total protein content using a colorimetric bicinchonic acid assay (MicroBCA Pierce/Thermo Scientific). Normalized cell extracts were then subjected to typical immuno-blotting procedures using NuPage reagents (Life Technologies). Electrophoretically separated histones were then transferred and immobilized using polyvinylidene difluoride membrane (Immobilon-FL Millipore). The amount of tri-methylated lysine 4 of histone H3 was detected using an antibody specific to the tri-methylated state (Cell Signaling Technologies) and quantified on an infrared imager using a densitometry software package (Odyssey CLx, Image Studio, Li-Cor). This background subtracted densitometry value was reported as a ration of the GAPDH amount for that sample and then calculated as a percent of the DMSO treated sample. The software package XL-fit (IDBS) was then used to calculate a relative IC50 value for the dilution series of a given test compound according to the equation: fit=(D+((Vmax*(x^n))/((x^n)+(Km^n)))).

Jarid1A = target: T1, Jarid1A (Homo sapiens, UniProt P29375); assay: Jarid1A in vitro enzyme inhibition assay (TR-FRET); type: biochemical
T1 construct: purchased BPS Bioscience 50110
T1 sequence (P29375 1-1090): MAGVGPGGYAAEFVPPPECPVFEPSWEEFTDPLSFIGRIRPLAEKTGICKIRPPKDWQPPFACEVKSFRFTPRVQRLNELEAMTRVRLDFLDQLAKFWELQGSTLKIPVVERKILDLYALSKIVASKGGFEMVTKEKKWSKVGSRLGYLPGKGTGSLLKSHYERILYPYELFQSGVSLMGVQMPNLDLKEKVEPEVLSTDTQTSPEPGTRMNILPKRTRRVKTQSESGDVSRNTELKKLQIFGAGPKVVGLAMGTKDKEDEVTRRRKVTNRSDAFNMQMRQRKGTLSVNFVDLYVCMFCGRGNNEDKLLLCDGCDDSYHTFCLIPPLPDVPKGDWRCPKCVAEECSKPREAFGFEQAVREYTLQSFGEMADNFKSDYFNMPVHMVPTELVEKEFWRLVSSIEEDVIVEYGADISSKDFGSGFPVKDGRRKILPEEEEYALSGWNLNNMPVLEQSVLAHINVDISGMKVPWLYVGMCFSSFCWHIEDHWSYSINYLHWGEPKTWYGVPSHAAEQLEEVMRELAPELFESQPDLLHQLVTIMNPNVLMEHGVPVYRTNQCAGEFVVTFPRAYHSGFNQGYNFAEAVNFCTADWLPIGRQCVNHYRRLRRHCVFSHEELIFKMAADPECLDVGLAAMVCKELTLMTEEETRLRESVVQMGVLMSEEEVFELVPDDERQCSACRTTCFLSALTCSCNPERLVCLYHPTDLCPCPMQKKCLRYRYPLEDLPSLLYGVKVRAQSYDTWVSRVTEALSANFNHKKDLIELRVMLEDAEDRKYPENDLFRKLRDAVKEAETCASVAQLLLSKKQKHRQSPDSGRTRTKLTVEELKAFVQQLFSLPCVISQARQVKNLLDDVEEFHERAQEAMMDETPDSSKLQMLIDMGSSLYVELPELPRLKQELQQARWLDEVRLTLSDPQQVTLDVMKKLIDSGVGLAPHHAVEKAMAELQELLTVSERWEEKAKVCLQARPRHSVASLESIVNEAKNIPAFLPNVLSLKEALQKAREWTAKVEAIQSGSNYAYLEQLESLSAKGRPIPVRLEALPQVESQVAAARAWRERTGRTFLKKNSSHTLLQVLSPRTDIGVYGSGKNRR
Summary of the method: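 Demethylation of 300 nM biotin-H3K4me3 peptide by 1 nM baculovirus-expressed Jarid1A (aa 1–1090) with 2 μM α-ketoglutarate, Fe(II) and ascorbate, pH 7.3, 30 min at room temperature. Stopped with EDTA; H3K4me1-2 product detected by TR-FRET (Eu anti-H3K4me1-2/streptavidin-APC). IC50 fitted from 665/615 ratio over 11-point dilutions.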

| Compound | pIC50 (KDM5A/B) | pIC50 (Jarid1A) |
| --- | --- | --- |
| N#CCC(=O)N1CC[C@@H](n2cc(Oc3nc(O)c4ccncc4n3)cn2)C1 [Example 130, 3-[(3R)-3-[4-({4-hydroxypyrido[3,4-d]pyrimidin-2-yl}oxy)-1H-pyrazol-1-yl]pyrrolidin-1-yl]-3-oxopropanenitrile] | < 5.00 | ≥ 7.00 |
| Oc1nc(Oc2cnn([C@H]3CCNC3)c2)nc2cnccc12 [Example 135, 2-({1-[(3S)-pyrrolidin-3-yl]-1H-pyrazol-4-yl}oxy)pyrido[3,4-d]pyrimidin-4-ol] | < 5.00 | 6.00 to 7.00 |
| CC(=O)N1CC[C@H](n2cc(Oc3nc(O)c4ccncc4n3)cn2)C1 [Example 139, 1-[(3S)-3-[4-({4-hydroxypyrido[3,4-d]pyrimidin-2-yl}oxy)-1H-pyrazol-1-yl]pyrrolidin-1-yl]ethan-1-one] | < 5.00 | ≥ 7.00 |
| N#CCC(=O)N1CC[C@H](n2cc(Oc3nc(O)c4ccncc4n3)cn2)C1 [Example 140, 3-[(3S)-3-[4-({4-hydroxypyrido[3,4-d]pyrimidin-2-yl}oxy)-1H-pyrazol-1-yl]pyrrolidin-1-yl]-3-oxopropanenitrile] | < 5.00 | ≥ 7.00 |
| O=C(C1CC1)N1CC[C@H](n2cc(Oc3nc(O)c4ccncc4n3)cn2)C1 [Example 141, 2-({1-[(3S)-1-cyclopropanecarbonylpyrrolidin-3-yl]-1H-pyrazol-4-yl}oxy)pyrido[3,4-d]pyrimidin-4-ol] | < 5.00 | ≥ 7.00 |
| O=C(c1ccccc1)N1CC[C@H](n2cc(Oc3nc(O)c4ccncc4n3)cn2)C1 [Example 142, 2-({1-[(3S)-1-benzoylpyrrolidin-3-yl]-1H-pyrazol-4-yl}oxy)pyrido[3,4-d]pyrimidin-4-ol] | < 5.00 | ≥ 7.00 |
| CC(=O)N1CCC[C@@H](n2cc(Oc3nc(O)c4ccncc4n3)cn2)C1 [Example 153, 1-[(3R)-3-[4-({4-hydroxypyrido[3,4-d]pyrimidin-2-yl}oxy)-1H-pyrazol-1-yl]piperidin-1-yl]ethan-1-one] | 5.00 to 6.00 | ≥ 7.00 |
| N#CCC(=O)N1CCC[C@@H](n2cc(Oc3nc(O)c4ccncc4n3)cn2)C1 [Example 154, 3-[(3R)-3-[4-({4-hydroxypyrido[3,4-d]pyrimidin-2-yl}oxy)-1H-pyrazol-1-yl]piperidin-1-yl]-3-oxopropanenitrile] | < 5.00 | ≥ 7.00 |
| O=C(CO)N1CC[C@H](n2cc(Oc3nc(O)c4ccncc4n3)cn2)C1 [Example 155, 2-hydroxy-1-[(3S)-3-[4-({4-hydroxypyrido[3,4-d]pyrimidin-2-yl}oxy)-1H-pyrazol-1-yl]pyrrolidin-1-yl]ethan-1-one] | 5.00 to 6.00 | ≥ 7.00 |
| O=C(C1CC1)N1CCC[C@@H](n2cc(Oc3nc(O)c4ccncc4n3)cn2)C1 [Example 156, 2-({1-[(3R)-1-cyclopropanecarbonylpiperidin-3-yl]-1H-pyrazol-4-yl}oxy)pyrido[3,4-d]pyrimidin-4-ol] | < 5.00 | ≥ 7.00 |
| O=C(c1ccccc1)N1CCC[C@@H](n2cc(Oc3nc(O)c4ccncc4n3)cn2)C1 [Example 157, 2-({1-[(3R)-1-benzoylpiperidin-3-yl]-1H-pyrazol-4-yl}oxy)pyrido[3,4-d]pyrimidin-4-ol] | 5.00 to 6.00 | ≥ 7.00 |

Further lines, results first:

| pIC50 (KDM5A/B) | pIC50 (Jarid1A) | Compound |
| --- | --- | --- |
| 5.00 to 6.00 | ≥ 7.00 | O=C(C1CC1)N1CC[C@@H](n2cc(Oc3nc(O)c4ccncc4n3)cn2)C1 [Example 131, 2-({1-[(3R)-1-cyclopropanecarbonylpyrrolidin-3-yl]-1H-pyrazol-4-yl}oxy)pyrido[3,4-d]pyrimidin-4-ol] |
| 5.00 to 6.00 | ≥ 7.00 | O=C(c1ccccc1)N1CC[C@@H](n2cc(Oc3nc(O)c4ccncc4n3)cn2)C1 [Example 132, 2-({1-[(3R)-1-benzoylpyrrolidin-3-yl]-1H-pyrazol-4-yl}oxy)pyrido[3,4-d]pyrimidin-4-ol] |
| 5.00 to 6.00 | ≥ 7.00 | Oc1nc(Oc2cnn([C@@H]3CCN(Cc4ccccc4)C3)c2)nc2cnccc12 [Example 133, 2-({1-[(3R)-1-benzylpyrrolidin-3-yl]-1H-pyrazol-4-yl}oxy)pyrido[3,4-d]pyrimidin-4-ol] |
| 6.00 to 7.00 | ≥ 7.00 | Oc1nc(Oc2cnn([C@@H]3CCN(c4ccc(F)cc4)C3)c2)nc2cnccc12 [Example 134, 2-({1-[(3R)-1-(4-fluorophenyl)pyrrolidin-3-yl]-1H-pyrazol-4-yl}oxy)pyrido[3,4-d]pyrimidin-4-ol] |
| 6.00 to 7.00 | ≥ 7.00 | CCS(=O)(=O)N1CC[C@H](n2cc(Oc3nc(O)c4ccncc4n3)cn2)C1 [Example 136, 2-({1-[(3S)-1-(ethanesulfonyl)pyrrolidin-3-yl]-1H-pyrazol-4-yl}oxy)pyrido[3,4-d]pyrimidin-4-ol] |
| 6.00 to 7.00 | ≥ 7.00 | O=S(=O)(C1CC1)N1CC[C@H](n2cc(Oc3nc(O)c4ccncc4n3)cn2)C1 [Example 137, 2-({1-[(3S)-1-(cyclopropanesulfonyl)pyrrolidin-3-yl]-1H-pyrazol-4-yl}oxy)pyrido[3,4-d]pyrimidin-4-ol] |
| 5.00 to 6.00 | ≥ 7.00 | O=S(=O)(c1ccccc1)N1CC[C@H](n2cc(Oc3nc(O)c4ccncc4n3)cn2)C1 [Example 138, 2-({1-[(3S)-1-(benzenesulfonyl)pyrrolidin-3-yl]-1H-pyrazol-4-yl}oxy)pyrido[3,4-d]pyrimidin-4-ol] |
| 5.00 to 6.00 | ≥ 7.00 | Oc1nc(Oc2cnn([C@H]3CCN(c4ccccc4)C3)c2)nc2cnccc12 [Example 145, 2-({1-[(3S)-1-phenylpyrrolidin-3-yl]-1H-pyrazol-4-yl}oxy)pyrido[3,4-d]pyrimidin-4-ol] |
| 5.00 to 6.00 | ≥ 7.00 | Oc1nc(Oc2cnn([C@H]3CCN(c4ccc(F)cc4)C3)c2)nc2cnccc12 [Example 146, 2-({1-[(3S)-1-(4-fluorophenyl)pyrrolidin-3-yl]-1H-pyrazol-4-yl}oxy)pyrido[3,4-d]pyrimidin-4-ol] |
| 5.00 to 6.00 | ≥ 7.00 | Oc1nc(Oc2cnn([C@H]3CCN(c4ccccc4F)C3)c2)nc2cnccc12 [Example 147, 2-({1-[(3S)-1-(2-fluorophenyl)pyrrolidin-3-yl]-1H-pyrazol-4-yl}oxy)pyrido[3,4-d]pyrimidin-4-ol] |
| 5.00 to 6.00 | ≥ 7.00 | Oc1nc(Oc2cnn([C@H]3CCN(c4ccc(Cl)cc4)C3)c2)nc2cnccc12 [Example 148, 2-({1-[(3S)-1-(4-chlorophenyl)pyrrolidin-3-yl]-1H-pyrazol-4-yl}oxy)pyrido[3,4-d]pyrimidin-4-ol] |
| 6.00 to 7.00 | ≥ 7.00 | CCS(=O)(=O)N1CCC[C@@H](n2cc(Oc3nc(O)c4ccncc4n3)cn2)C1 [Example 150, 2-({1-[(3R)-1-(ethanesulfonyl)piperidin-3-yl]-1H-pyrazol-4-yl}oxy)pyrido[3,4-d]pyrimidin-4-ol] |
| 6.00 to 7.00 | ≥ 7.00 | Oc1nc(Oc2cnn([C@@H]3CCCN(Cc4ccccc4)C3)c2)nc2cnccc12 [Example 158, 2-({1-[(3R)-1-benzylpiperidin-3-yl]-1H-pyrazol-4-yl}oxy)pyrido[3,4-d]pyrimidin-4-ol] |
